Assay results: patent publication US11369651B2, “Uses of FU-LING (Poria cocos) extract and tumulosic acid in protecting muscles” (SINPHAR PHARMACEUTICAL CO., LTD. (DONGSHAN, TAIWAN), priority 2016, dated 2022)

Tests used:
Assay type in all cases: cell-based, mice
MyHC = experiment: Expression of myoblast differentiation marker MyHC in C2C12 cells by Western blot; conditions: for Expression level of MyHC (%): 4 days, control group = 100%
From the text: (§1) As described above, myogenin and MyHC can be used as markers for myoblast differentiation. To investigate whether FU-LING extract and tumulosic acid have the effect of promoting differentiation of myoblasts, tumulosic acid (purchased from Sinphar pharmaceutical co. ltd), FU-LING meat extract obtained from Example 1 (1-4), FU-LING epidermis extract obtained from Example 1 (1-6), and the FU-LING fermentation extract obtained from Example 1 (1-7) were formulated into the following: (1) tumulosic acid solution, (2) FU-LING meat extract solution, (3) FU-LING epidermis extract solution, and (4) FU-LING fermentation extract solution, respectively, in dimethyl sulfoxide (DMSO; purchased from Sigma Company).
(§2) After 80% confluence of cells was attained in H-DMEM medium, cells were separated into fourteen groups and treated as follows: • (1) Control group: The medium was replaced by a differentiation medium supplemented with 2% horse serum, and the cells were cultured for 4 days. • (2) Meat extract group (3 groups): The medium was replaced by a differentiation medium supplemented with 2% horse serum, and FU-LING meat extract solution was then added into the medium (the final concentration was 0.1, 1 or 10 ng/mL) to perform a co-treatment for 4 days. • (3) Epidermis extract group (4 groups): The medium was replaced by a differentiation medium supplemented with 2% horse serum, and FU-LING epidermis extract solution was then added into the medium (the final concentration was 0.01, 0.1, 0.5 or 1 ng/mL) to perform a co-treatment for 4 days. • (4) Fermentation extract group (3 groups): The medium was replaced by a differentiation medium supplemented with 2% horse serum, and FU-LING fermentation extract solution was then added into the medium (the final concentration was 0.2, 2, or 20 ng/mL) to perform a co-treatment for 4 days. • (5) Tumulosic acid group (4 groups): The medium was replaced by a differentiation medium supplemented with 2% horse serum, and tumulosic acid solution was then added into the medium (the final concentration was 0.01, 0.1, 1 or 10 ng/mL) to perform a co-treatment for 4 days.
(§3) After that, cell proteins in each group were extracted. Thereafter, the expression levels of myoblast differentiation markers (myogenin and MyHC) were detected by Western blot. Finally, the control group served as a basis (e.g., the expression level of the control group was 100%) for calculating the relative expression levels of myogenin and MyHC proteins in each group.

myogenin = experiment: Expression of myoblast differentiation marker myogenin in C2C12 cells by Western blot; conditions: for Expression level of myogenin (%): 4 days, control group = 100%; for increase of the expression level of myogenin protein: vs control
From the text: as §1, §2, §3

C2C12 cells = experiment: TNF-α induced muscle cell injury model, intracellular ROS; conditions: 4 days in differentiation medium, relative to 0 ng/mL
Method: Firstly, C2C12 cells (i.e., myoblasts of mice, purchased from ATCC) were cultured in H-DMEM medium (purchased from Sigma company) until 80% confluence was attained (i.e., the mixed cell monolayer comprised 80% of the area). Thereafter, the cells were separated into four groups, and the mediums of all the groups were replaced by differentiation mediums supplemented with 2% horse serum. TNF-α (purchased from Sigma company) was then added into those mediums to provide final concentrations of 0, 2, 5 or 10 ng/mL respectively. After being co-treated with the differentiation medium and TNF-α for 4 days, the intracellular reactive oxidative stress (ROS) of the C2C12 cells was measured to serve as the index for model evaluation. Accordingly, a TNF-α induced muscle cell injury model was established. Finally, the group that was not treated with TNF-α (i.e., the concentration of TNF-α was 0 ng/mL) served as a basis for calculating the relative intracellular ROS of the other groups. The results are shown in FIG. 1 (all the data are presented as average values±SEM, n=6, analyzed with a t-test, ***p<0.001).

Molecule: C=C(CC[C@@H](C(=O)O)[C@H]1[C@H](O)C[C@@]2(C)C3=C(CC[C@]12C)[C@@]1(C)CC[C@H](O)C(C)(C)[C@@H]1CC3)C(C)C [Tumulosic acid, tumulosic acid]
- Expression level of MyHC (%) (MyHC; 0.01 ng/mL): 90%
- Expression level of MyHC (%) (MyHC; 0.1 ng/mL): 80%
- Expression level of MyHC (%) (MyHC; 1 ng/mL): 70%
- Expression level of MyHC (%) (MyHC; 10 ng/mL): 180%
- increase of the expression level of MyHC protein (MyHC; 10 μg/ml, vs control): about 80%
- Expression level of myogenin (%) (myogenin; 0.01 ng/mL): 130%
- Expression level of myogenin (%) (myogenin; 0.1 ng/mL): 130%
- Expression level of myogenin (%) (myogenin; 1 ng/mL): 160%
- Expression level of myogenin (%) (myogenin; 10 ng/mL): 490%
- increase of the expression level of myogenin protein (myogenin; 10 μg/ml): about 390%
- increase of the expression level of myogenin protein (myogenin; 0.01-0.1 μg/ml): about 30%

Molecule: TNF-α
- intracellular reactive oxidative stress (ROS) of C2C12 cells (C2C12 cells; 5 ng/mL TNF-α): increased
- intracellular reactive oxidative stress (ROS) of C2C12 cells (C2C12 cells; 10 ng/mL TNF-α): significantly increased
